Source: publication PMC11250742, “Preclinical evaluation of CXCR4 peptides for targeted radionuclide therapy in glioblastoma” (EJNMMI Radiopharmacy and Chemistry, 2024)
Where a SMILES comes first, the peptide text is derived from it. Bridges are numbered along the chain shown (N, C = ends). Roman numbers before positions name the chains, in order. [ ]: non-standard residue; d: D form. The star is where a group is joined. DOTA = O=C(O)CN1CCN(CC(=O)O)CCN(CC(=O)*)CCN(CC(=O)O)CC1

Experiments:
Type in all cases: cell-based
U87-CXCR4 + cells [1] = test: Cell membrane binding and internalisation assay
Description: In the saturation binding assays, U87-CXCR4 + cells were seeded in 24-well plates and allowed to adhere. The night before the experiment, complete media was replaced with media containing 2% FBS. To determine the total binding, cells were treated with a mixture of each radiolabelled peptide (at final concentrations ranging from 0.1 to 1000 nM, corresponding to activity concentrations ranging from 0.005 to 50 MBq/mL) with 0.2% dimethyl sulfoxide (DMSO, vehicle). Non-specific binding (NSB) was verified by treating cells with a mixture of each radiolabelled peptide with 100 µM of AMD11070, a potent CXCR4 antagonist.
After 4 h of incubation at 37 °C and 5% CO2, the unbound fraction was collected in gamma counter tubes, and the cells were washed twice with PBS. The wash fractions were added to the same gamma counter tubes. Next, cells were lysed by incubation with 1 M NaOH for 30 min at room temperature (RT). After collecting the lysed cell fractions, two washes with 1 M NaOH were performed, and added to the same fractions, corresponding to the total bound fractions.
For the internalisation assay, 1 and 100 nM of the radiolabelled peptides were used. The membrane-bound fraction was separated from the internalised fraction by a 10 min incubation at RT with a stripping buffer of 50 mM glycine and 100 mM NaCl, pH 2.8. This was followed by lysis with 1 M NaOH as described above.
The activities of all collected fractions were measured in an automated gamma counter. Activity measurements were converted to % added activity (%AA) and normalised for cell counts. A standard curve, obtained by measuring the treatment solutions, was used to convert the activity concentration to moles.

U87-CXCR4 + cells [2] = test: DNA damage immunofluorescence (yH2AX / 53BP1)
Description: DNA damage in U87-CXCR4 + cells was detected by immunofluorescent staining of the DNA damage and repair proteins, phospho-H2A histone family member X (yH2Ax) and p53-binding protein 1 (53BP1). Briefly, cells were seeded in 96-well plates and left overnight to adhere at 37 °C, 5% CO2. Next, cells were treated with different activity concentrations of [^177Lu]Lu-DOTA-POL3026 or [^177Lu]Lu-DTPA, ranging from 1 to 20 MBq/mL. After four hours of incubation, cells were washed twice with PBS, replenished with fresh media, and left at 37 °C, 5% CO2 until the fixation time point. For fixation, cells were washed with PBS, and fixed by incubating them with 4% paraformaldehyde (PFA) for 15 min at RT. This was done 0, 24 and 120 h after treatment. Cells were washed twice with PBS and stored in PBS at 4 °C until the residual radioactivity in the plate decayed. The vehicle includes the NaOAc radiolabeling buffer at the concentration used for the 20 MBq/mL peptide solutions.
After decay storage, yH2Ax/53BP1 double staining was performed using the following protocol. First, cells were washed once with PBS-glycine and then permeabilised by washing them for 10 min with PBS-Triton X-100. […]
Cells were imaged at 40x magnification using a BioTek Cytation 5 (Agilent Technologies, Mechelen, Belgium), where 4 fields were imaged per well, ensuring that at least a hundred cells were counted per condition. […]

U87-CXCR4 + cells [3] = test: Apoptosis live cell imaging (Annexin V, Caspase 3/7; IncuCyte); settings: day 5, 4 h, normalised to confluence and vehicle, N = 2
Description: Apoptosis was measured using the IncuCyte® Zoom system (Essen Bioscience, Hertfordshire, UK).
Briefly, cells were seeded in 96-well plates, and left to attach overnight at 37 °C, 5% CO2. Next, cells were treated with different activity concentrations of [^177Lu]Lu-DOTA-POL3026 or [^177Lu]Lu-DTPA, ranging from 1 to 20 MBq/mL. After four hours of incubation at 37 °C and 5% CO2, cells were washed twice with PBS. The Sartorius™ IncuCyte® dyes Caspase 3/7 green reagent and Annexin V red reagent were added at 1/2000 and 1/200 dilutions, respectively. Images were analysed using the IncuCyte® Zoom software. The average values of Green Calibrated Unit GCU x µm² (for Caspase 3/7) and Red Calibrated Units RCU x µm² (for Annexin V) signal were normalised to cell confluence percentages, five and seven days after treatment. Vehicle includes the NaOAc radiolabeling buffer at the concentration used for the 20 MBq/mL peptide solutions.

U87-CXCR4 + cells [4] = test: MTS cell viability assay; settings: for cell viability: % of vehicle, mean ± SD
Description: Cell viability assays were performed using increasing activity concentrations of the radiolabelled peptides (1 to 20 MBq/mL), incubated with U87-CXC4 + cells for four hours at 37 °C, 5% CO2. After the incubation period, cells were washed twice with PBS and replenished with complete media. After five and seven days of treatment, the cell media was removed and MTS (3-(4,5-dimethylthiazol-2-yl)-5-(3-carboxymethoxyphenyl)-2-(4-sulfophenyl)-2 H-tetrazolium) reagent added, prepared according to manufacturer’s instructions (CellTiter 96® AQueous One Solution Cell Proliferation Assay, Promega, Wisconsin, United States). To determine the effect of the radiation originating from unbound radiolabelled peptides, cells were treated with equivalent activity concentrations of [^177Lu]Lu-DTPA. Triton X-100 (0.1%) was used as a positive control. Vehicle includes the NaOAc radiolabeling buffer at the concentration used for the 20 MBq/mL peptide solutions. The cells were incubated for 0.5–1 h with the MTS reagent at 37 °C, 5% CO2. Absorbance was measured at 490 nm using a BioTek Synergy H1 plate reader (Agilent Technologies, Mechelen, Belgium). Cell viability was normalised to the vehicle and calculated as percentage of cell viability.

SMILES | added activity bound to the cell membrane (U87-CXCR4 + cells [1]; 1 nM, 4 h, 37 °C, glycine stripping buffer pH 2.8, mean ± SD, N = 2) | added activity internalised (U87-CXCR4 + cells [1]; 1 nM, 4 h, 37 °C, mean ± SD, N = 2) | reduction of binding in presence of 100 µM AMD11070 (specific binding) (U87-CXCR4 + cells [1]; 1 nM, stated after the internalised fractions) | change of uptake (%AA) at 100 nM compared with 1 nM (U87-CXCR4 + cells [1]; incubation concentration 100 nM) | increase of yH2AX (U87-CXCR4 + cells [2]; any of the activity concentrations (1–20 MBq/mL)) | increase in 53BP1 (U87-CXCR4 + cells [2]; any timepoint (0 h, 1 day, 5 days) after treatment) | Annexin V signal (U87-CXCR4 + cells [3]; 1 MBq/mL) | Annexin V signal (U87-CXCR4 + cells [3]; 10 MBq/mL) | cell viability (U87-CXCR4 + cells [4]; 1 MBq/mL, day not stated in the sentence (follows the day 7 statement)) | cell viability (U87-CXCR4 + cells [4]; day 5, 20 MBq/mL, 4 h incubation, N = 3–4) | effect on cell viability (U87-CXCR4 + cells [4]; day 7, 2 to 20 MBq/mL)
CC(C)C[C@@H](N)C(=O)NCC(=O)N[C@H](C)C(=O)N[C@H](CO)C(=O)N[C@H](Cc1c[nH]c2ccccc12)C(=O)N[C@H](Cc1c[nH]cn1)C(=O)N[C@H](CCCNC(=N)N)C(=O)N1CCC[C@@H]1C(=O)N[C@H](CC(=O)O)C(=O)N[C@H](CCCCNC(=O)CN1CCN(CC(=O)O)CCN(CC(=O)O)CCN(CC(=O)O)CC1)C(=O)NCCCC[C@@H](NC(=O)[C@H]1CCCN1C(=O)[C@@H](CC(C)C)NC(=O)[C@H]1CCCN1C(=O)[C@@H](CCCNC(=N)N)NC(=O)[C@@H](CCCCN)NC(=O)[C@@H](CCC(N)=O)NC(=O)[C@@H](Cc1ccc(O)cc1)NC(=O)CNC(=O)[C@@H](CC(C)C)NC(=O)[C@@H](CS)NC(=O)[C@@H](CS)NC(=O)[C@@H](CCCCN)NC(=O)[C@@H](CC(=O)O)NC(=O)[C@H]1CCCN1C(=O)[C@@H](CCCNC(=N)N)NC(=O)[C@@H](Cc1c[nH]cn1)NC(=O)[C@@H](Cc1c[nH]c2ccccc12)NC(=O)[C@@H](CO)NC(=O)[C@@H](C)NC(=O)CNC(=O)[C@H](N)CC(C)C)C(N)=O [[^177Lu]Lu-DOTA-DV1-K-DV3, metal not drawn] (I: H-[dL]G[dA][dS][dW][dH][dR][dP][dD][dK][dC][dC][dL]G[dY][dQ][dK][dR][dP][dL][dP][dK]-NH2 / II: H-[dL]G[dA][dS][dW][dH][dR][dP][dD][dK](DOTA); amide I:22-II:C; N-terminus and C-terminus assumed) | less than 1 %AA | 0.2 ± 0.02 %AA | negligible | did not significantly increase |  |  |  |  |  |  | 
O=C([O-])CN(CCN(CC(=O)[O-])CC(=O)[O-])CCN(CC(=O)[O-])CC(=O)[O-].[177Lu+3] [[^177Lu]Lu-DTPA] |  |  |  |  | did not result in an increase | No statistically-significant increase | 1.4 ± 0.8 times the vehicle | 3.3 ± 3.3 times the vehicle | 90.9 ± 7.8% | 50.2 ± 10.4% | statistically-significant reduction
